Results published in US11129840B2, “Methods for identifying novel dosing regimens” (Zavante Therapeutics, Inc., priority 2017, dated 2021).
≈ marks a conversion by molar mass, not a printed value. Marks after values point to notes of the source that are not given here.

How the values were obtained:
[1] = test system: K. pneumoniae (KPC-producer) isolate; assay: Time-kill kinetic analysis; type: cell-based, Klebsiella pneumoniae
Method: TKK were sampled for colony counts at T0, T2, T4, T8 and T24 hours (h). Two Klebsiella pneumoniae isolates (one KPC and one ESBL), two Pseudomonas aeruginosa isolates (non-MDR), and one Acinetobacter baumannii isolate (MDR) were tested.

[2] = test system: ESBL-producing K. pneumoniae isolate; assay: Time-kill kinetic analysis; type: cell-based, Klebsiella pneumoniae; details: FOS 1, 2, 4×MIC, 4 h
Method: Broth microdilution for FOS (Mueller-Hinton broth supplemented with 25 μg/mL glucose-6-phosphate) and comparators was performed before performing TKK. TKK employed MIC multiples for FOS, and ¼ and 1×MIC of select comparators, and combinations of FOS and comparator. TKK were sampled for colony counts at T0, T2, T4, T8 and T24 hours (h). Two Klebsiella pneumoniae isolates (one KPC and one ESBL), two Pseudomonas aeruginosa isolates (non-MDR), and one Acinetobacter baumannii isolate (MDR) were tested.

[3] = Phase I safety and tolerability in healthy adult subjects; type: in vivo, human
Method: Materials/methods: Phase I, open-label study evaluating IV (ZTI-01) and PO (Monurol®) FOS in healthy adult subjects. […] Blood and urine samples were collected serially before and through 48 hours post-dose and analyzed via LC/MS-MS. Noncompartmental analyses were performed via WinNonlin. Safety was monitored throughout the course of the study.

EC, KPN and PSA isolates = assay: Thigh infection, dose fractionation and efficacy against all 10 isolates; type: in vivo, mice; details: 24 h; commonly in isolates with lower MICs
Method: (§1) 5 EC (4 ESBL), 3 KPN (2 CR), and 2 PSA were used. MICs were determined by agar dilution. […] PK/PD index determination was performed using a dose fractionation (DF) study design. […] The dose-response data was analyzed using the Emax Hill equation.

EC = assay: Thigh infection, static dose and PD targets; type: in vivo, mice
Method: as §1

KPN = assay: Thigh infection, static dose and PD targets; type: in vivo, mice
Method: as §1

PSA = assay: Thigh infection, static dose and PD targets; type: in vivo, mice
Method: as §1

Enterobacteriaceae [4] = assay: Neutropenic murine-thigh infection model, AUC:MIC ratio targets; type: in vivo
E. coli = assay: Reference agar dilution MIC, ZEUS baseline isolates; type: cell-based; details: 329 E. coli
Method: (§2) FOS was tested against 465 GN baseline clinical isolates collected in the cUTI clinical trial. Isolates were susceptibility (S) tested against comparator agents by reference broth microdilution and FOS by reference agar dilution (25 μg/mL glucose-6-phosphate supplementation). Existing FDA FOS breakpoints of ≤64 mg/L for the oral formulation were used for comparative assessments. Screen-positive ESBL Enterobacteriaceae isolates were characterized by whole genome sequencing and analysis for the presence of known β-lactamase genes.

ESBL-containing E. coli = assay: as above; type: cell-based; details: Escherichia coli; 49 isolates
Method: as §2

[5] = test system: ESBL-containing K. pneumoniae; assay: as above; type: cell-based; details: Klebsiella pneumoniae
Method: as §2

[6] = test system: ESBL-containing P. mirabilis; assay: as above; type: cell-based; details: Proteus mirabilis; 3 isolates
Method: as §2

[7] = test system: Enterobacter cloacae complex; assay: as above; type: cell-based
Method: as §2

Enterobacteriaceae [8] = assay: as above; type: cell-based
Method: as §2

[9] = test system: K. pneumoniae isolates with carbapenemase genes NDM-1 and OXA-48; assay: as above; type: cell-based; details: Klebsiella pneumoniae
Method: as §2

Klebsiella pneumoniae = assay: as above; type: cell-based
Method: as §2

Proteus mirabilis = assay: as above; type: cell-based; details: 20 isolates
Method: as §2

Pseudomonas aeruginosa = assay: as above; type: cell-based
Method: as §2

[10] = test system: Meropenem-NS PSA (MDR PSA isolates); assay: FOF MIC by ETEST; type: cell-based; details: Pseudomonas aeruginosa
Method: Meropenem-NS PSA obtained from US hospitals were studied. MICs of all antibiotics except FOF were previously determined by broth microdilution; FOF MIC was determined by ETEST® antibiotic gradient diffusion strip prior to conducting synergy assessments between FOF and aztreonam (ATM), cefepime (FEP), ceftazidime (CAZ), meropenem (MEM), piperacillin/tazobactam (TZP), and tobramycin (TOB). […] Of note, Liofilchem® MIC Test Strip was used for TZP due to commercial availability. Only organisms that were NS to the 2nd drug were assessed for synergy.

[11] = test system: Carbapenemase-producing Enterobacteriaceae (CPE); assay: FOF MIC by ETEST; type: cell-based; details: 37 CPE incl. 11 harboring fos(A)
Method: Isolates (n=37) harboring KPC, NDM, OXA, or VIM carbapenemases, with a majority also producing extended-spectrum β-lactamases, were acquired from the FDA-CDC Antimicrobial Resistant Bank. MICs for agents tested in combination with FOF were determined by broth microdilution; FOF MIC was determined by ETEST® antibiotic gradient diffusion strip prior to conducting synergy assessments between FOF and aztreonam (ATM), ceftazidime (CAZ), ceftazidime/avibactam (CZA), cefepime, ceftolozane/tazobactam (C/T), meropenem, piperacillin/tazobactam, and tobramycin (TOB). Synergistic potential for each combination was determined by crossing a FOF ETEST® strip with each of the aforementioned antibiotic strips at a 90° angle at their respective MICs with subsequent calculation of the fractional inhibitory concentration (FIC). […] Only organisms that were non-susceptible to the second drug were assessed for synergy.

[12] = Single dose plasma PK in mice after SC administration; details: mouse, in vivo

SMILES: C[C@@H]1O[C@@H]1P(=O)(O)O [FOS, fosfomycin]
- increase in bacterial growth ([1]; FOS 0.5, 1 and 2×MIC, by 24 h): approximately 2 log10
- log10 reduction in bacterial growth (CFU) ([1]; FOS 2×MIC, by 4 h): > 3 log10
- killing activity ([1]; FOS alone): bactericidal
- decrease in CFU [2]: 1.4-2.2 log10 CFU
- share of TEAE that occurred after the 8 g IV dose ([3]; 8 g IV): 67.9%
- hypocalcemia (most common TEAE) ([3]; after 1 g IV): 17.9%
- bradycardia (most common TEAE) ([3]; after 8 g IV): 28.6%
- % of subjects reporting a treatment-emergent adverse event (TEAE) ([3]; all regimens): 80%
- severity of TEAEs ([3]; all regimens, resolved without sequelae): mild-moderate
- headache (most common FOS-related TEAE) ([3]; human, in vivo): 10.7%
- Maximal cidal activity (EC, KPN and PSA isolates): 2-3 log kill
- Static Dose (EC; mean): 847 mg/kg/24 h
- Stasis AUC/MIC (EC; median target): 19.3*
- Stasis T > MIC (EC; median target): 37.7* %
- Static Dose (KPN; mean): 1667 mg/kg/24 h
- Stasis AUC/MIC (KPN; median target): 11.1*
- Stasis T > MIC (KPN; median target): 26.5* %
- Static Dose (PSA; mean): 1920 mg/kg/24 h
- Stasis AUC/MIC (PSA; mouse, in vivo): 15
- Stasis T > MIC (PSA; mouse, in vivo): 29%
- median total-drug plasma AUC:MIC ratio target (Enterobacteriaceae [4]; 1-log10 CFU reduction from baseline at 24 h): 41.6
- median total-drug plasma AUC:MIC ratio target (Enterobacteriaceae [4]; net bacterial stasis at 24 h): 19.1
- % S to FOS (E. coli): 100.0%
- MIC50 (ESBL-containing E. coli): 1 µg/mL (≈ 7.24 µM)
- MIC90 (ESBL-containing E. coli): 2 µg/mL (≈ 14.5 µM)
- MIC90 [5]: 128 µg/mL (≈ 927 µM)
- MIC50 ([5]; 28 isolates): 16 µg/mL (≈ 116 µM)
- MIC50 [6]: 2 µg/mL (≈ 14.5 µM)
- MIC90 [7]: 128 µg/mL (≈ 927 µM)
- MIC50 ([7]; 14 isolates): 16 µg/mL (≈ 116 µM)
- % of isolates ≤64 mg/L (Enterobacteriaceae [8]): 96.4%
- MIC50 (Enterobacteriaceae [8]): 1 µg/mL (≈ 7.24 µM)
- MIC90 (Enterobacteriaceae [8]): 16 µg/mL (≈ 116 µM)
- MIC ([9]; NDM-1 isolate): 8 µg/mL (≈ 57.9 µM)
- MIC ([9]; OXA-48 isolate): 64 µg/mL (≈ 464 µM)
- % of isolates <64 mg/L (Klebsiella pneumoniae; 62 isolates): 87.1%
- MIC90 (Klebsiella pneumoniae; Klebsiella pneumoniae): 128 µg/mL (≈ 927 µM)
- MIC50 (Klebsiella pneumoniae; Klebsiella pneumoniae, 62 isolates): 16 µg/mL (≈ 116 µM)
- MIC50 (Proteus mirabilis): 2 µg/mL (≈ 14.5 µM)
- MIC90 (Proteus mirabilis): 32 µg/mL (≈ 232 µM)
- MIC90 (Pseudomonas aeruginosa): 256 µg/mL (≈ 1850 µM)
- MIC50 (Pseudomonas aeruginosa; 21 isolates): 64 µg/mL (≈ 464 µM)
- MIC90 [10]: > 1020 µg/mL
- MIC50 ([10]; 87 isolates, ETEST): 64 µg/mL
- MIC50 [11]: > 1020 µg/mL
- half-life [12]: 30.6 to 66 min
